# Target: PD-1/PD-L1 (Homo sapiens (Human), UniProt Q9NZQ7)
# Experiment: PD-1/PD-L1 Binding Assay (Alphascreen)
# Conditions: numeric values
# Outline: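 PD-1/PD-L1 binding detected by anti-6×His acceptor and streptavidin donor beads after 120 min in the dark at 25 °C. Beforehand, the two proteins were incubated 15 min at 25 °C with inhibitor at 0.015–300 nM (1% DMSO). IC50 comes from a log concentration–response curve.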
# PD-1/PD-L1, sequence (Q9NZQ7 19-238): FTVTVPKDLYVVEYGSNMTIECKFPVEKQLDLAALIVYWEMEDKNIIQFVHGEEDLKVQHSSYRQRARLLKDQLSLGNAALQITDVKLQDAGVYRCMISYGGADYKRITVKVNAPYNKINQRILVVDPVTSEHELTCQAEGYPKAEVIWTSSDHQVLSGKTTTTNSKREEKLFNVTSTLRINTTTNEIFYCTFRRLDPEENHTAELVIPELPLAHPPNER
row,Structure (SMILES),IC50 [nM]
1,"Cc1c(-c2nc3cc(CN[C@@H]4CCC[C@@H]4O)ccc3o2)cccc1-c1cccc(-c2nc3cc(CN4CCC[C@H]4C(=O)O)c(OC(F)F)cc3o2)c1C [Example 99, ((6-(difluoromethoxy)-2-(3′-(5-((((1R,2S)-2-hydroxycyclopentyl)amino)methyl)benzo[d]oxazol-2-yl)-2,2′-dimethyl-[1,1′-biphenyl]-3-yl)benzo[d]oxazol-5-yl)methyl)-L-proline]",0.82
2,"Cc1c(-c2ccc(CNCCO)cc2)cccc1-c1cccc(-c2nc3cc(CN4CCC[C@H]4C(=O)O)c(OC(F)F)cc3o2)c1C [Example 217, ((6-(difluoromethoxy)-2-(4″-(((2-hydroxyethyl)amino)methyl)-2,2′-dimethyl-[1,1′:3′,1″-terphenyl]-3-yl)benzo[d]oxazol-5-yl)methyl)-L-proline]",0.67
3,"Cc1cc(-c2cccc(-c3cccc(-c4nc5cc(CN6CCC[C@H]6C(=O)O)c(OC(F)F)cc5o4)c3C)c2C)ccc1CN1CCCC1 [Example 230, ((6-(difluoromethoxy)-2-(2,2′,3″-trimethyl-4″- (pyrrolidin-1-ylmethyl)-[1,1′:3′,1″-terphenyl]-3-yl)benzo[d]oxazol-5-yl)methyl)-L-proline]",1.5
4,"Cc1c(-c2nc3cc(CN4CC(O)C4)c(OC(F)F)cc3o2)cccc1-c1cccc(-c2nc3cc(CN4CCC[C@H]4C(=O)O)c(OC(F)F)cc3o2)c1C [Example 20, ((6-(difluoromethoxy)-2-(3′-(6-(difluoromethoxy)-5-((3-hydroxyazetidin-1-yl)methyl)benzo [d]oxazol-2-yl)-2,2′-dimethyl-[1,1′-biphenyl]-3-yl)benzo[d]oxazol-5-yl)methyl)-L-proline]",1.6
5,"Cc1c(-c2nc3cc(CNCCO)c(OCc4cncc(C#N)c4)cc3o2)cccc1-c1cccc(-c2nc3cc(CN4CCC[C@H]4C(=O)O)c(OC(F)F)cc3o2)c1C [Example 120, ((2-(3′-(6-((5-cyanopyridin-3-yl)methoxy)-5-(((2-hydroxyethyl)amino)methyl)benzo[d]oxazol-2-yl)-2,2′-dimethyl-[1,1′-biphenyl]-3-yl)-6-(difluoromethoxy)benzo[d]oxazol-5-yl)methyl)-L-proline]",1.1
6,"Cc1c(-c2ccc(C3CCCN3)cc2)cccc1-c1cccc(-c2nc3cc(CN4CCC[C@H]4C(=O)O)c(OC(F)F)cc3o2)c1C (stereo partly drawn) [Example 255, ((6-(difluoromethoxy)-2-(2,2′-dimethyl-4″- (pyrrolidin-2-yl)-[1,1′:3′,1″-terphenyl]-3-yl)benzo[d]oxazol-5-yl)methyl)-L-proline]",2.3
7,"Cc1c(Nc2nccc3cc(CN4CCC4)cnc23)cccc1-c1cccc(-c2nc3cc(CN4CCC[C@H]4C(=O)O)c(OC(F)F)cc3o2)c1C [Example 177, ((2-(3′-((3-(azetidin-1-ylmethyl)-1,7-naphthyridin-8-yl)amino)-2,2′-dimethyl-[1,1′-biphenyl]-3-yl)-6-(difluoromethoxy)benzo[d]oxazol-5-yl)methyl)proline]",0.94

# Same assay, conditions: range symbols
row,Structure (SMILES),IC50 [nM]
1,"CCCNCCCNCc1cc2nc(-c3cccc(-c4cccc(-c5nc6cc(CN7CCC[C@H]7C(=O)O)c(OC(F)F)cc6o5)c4C)c3C)oc2cc1OC(F)F [Example 52, ((6-(difluoromethoxy)-2-(3′-(6-(difluoromethoxy)-5-(((3-(propylamino)propyl)amino)methyl)benzo [d]oxazol-2-yl)-2,2′-dimethyl-[1,1′-biphenyl]-3-yl)benzo[d]oxazol-5-yl)methyl)-L-proline]",0.1 to 5
2,"Cc1c(-c2nc3cc(CN4CCC[C@H]4C(=O)O)c(OC(F)F)cc3o2)cccc1-c1cccc(-c2nc3c(F)c(F)c(CN4CCCC4)cc3n2CC(F)(F)F)c1C [Example 300, ((2-(3′-(4,5-difluoro-6-(pyrrolidin-1-ylmethyl)-1-(2,2,2-trifluoroethyl)-1H-benzo[d]imidazol-2-yl)-2,2′-dimethyl-[1,1′-biphenyl]-3-yl)-6-(difluoromethoxy)benzo[d]oxazol-5-yl)methyl)-L-proline]",> 50
3,"Cc1c(-c2nc3cc(CN4CCC[C@H]4C(=O)O)c(OC(F)F)cc3o2)cccc1-c1cccc(-c2ccc(CNC[C@@H]3CCC(=O)N3)c(OC(F)F)c2)c1F [Example 216, ((6-(difluoromethoxy)-2-(3″-(difluoromethoxy)-2′-fluoro-2-methyl-4″-(((((S)-5-oxopyrrolidin-2-yl)methyl)amino)methyl)-[1,1′:3′,1″- terphenyl]-3-yl)benzo[d]oxazol-5-yl)methyl)-L-proline]",0.1 to 5
4,"CCCNCCCN(C)Cc1cc2nc(-c3cccc(-c4cccc(-c5nc6cc(CN7CCC[C@H]7C(=O)O)c(OC(F)F)cc6o5)c4C)c3C)oc2cc1OC(F)F [Example 53, ((6-(difluoromethoxy)-2-(3′-(6-(difluoromethoxy)-5-((methyl(3-(propylamino)propyl)amino)methyl)benzo [d]oxazol-2-yl)-2,2′-dimethyl-[1,1′-biphenyl]-3-yl)benzo[d]oxazol-5-yl)methyl)-L-proline]",0.1 to 5
5,"Cc1c(-c2nc3cc(CN4CCC[C@@H]4C(=O)O)c(OC(F)F)cc3o2)cccc1-c1cccc(-c2nc3cc(CN4CCC(F)C4)cc(C#N)c3o2)c1C (stereo partly drawn) [Example 163, ((2-(3′-(7-cyano-5-((3-fluoropyrrolidin-1-yl)methyl)benzo[d]oxazol-2-yl)-2,2′-dimethyl-[1,1′-biphenyl]-3-yl)-6-(difluoromethoxy)benzo[d]oxazol-5-yl)methyl)-D-proline]",5 to 50
6,"Cc1c(-c2nc3cc(CN4CCC4C)ccc3o2)cccc1-c1cccc(-c2nc3cc(CN4CCC[C@H]4C(=O)O)c(OC(F)F)cc3o2)c1C (stereo partly drawn) [Example 313, ((6-(difluoromethoxy)-2-(2,2′-dimethyl-3′-(5-((2-methylazetidin-1-yl)methyl)benzo[d]oxazol-2-yl)-[1,1′-biphenyl]-3-yl)benzo[d]oxazol-5-yl)methyl)-L-proline]",0.1 to 5
7,"Cc1c(-c2nc3cc(CN4CCC[C@H]4C(=O)O)c(OC(F)F)cc3o2)cccc1-c1cccc(-c2nc3cc(CNC4(C)COC4)cc(C#N)c3o2)c1C [Example 133, ((2-(3′-(7-cyano-5-(((3-methyloxetan-3-yl)amino)methyl)benzo[d]oxazol-2-yl)-2,2′-dimethyl-[1,1′-biphenyl]-3-yl)-6-(difluoromethoxy)benzo[d]oxazol-5-yl)methyl)-L-proline]",0.1 to 5
8,"Cc1c(-c2ccc(CN3Cc4ccc(NC(N)=O)cc4C3)c(F)c2)cccc1-c1cccc(-c2nc3cc(CN4CCC[C@H]4C(=O)O)c(OC(F)F)cc3o2)c1C [Example 258, ((6-(difluoromethoxy)-2-(3″-fluoro-2,2′-dimethyl-4″-((5-ureidoisoindolin-2-yl)methyl)-[1,1′:3′,1″-terphenyl]-3-yl)benzo[d]oxazol-5-yl)methyl)-L-proline]",5 to 50
9,"Cc1c(Nc2nccc3cc(CN4CCC(O)C4)cnc23)cccc1-c1cccc(-c2nc3cc(CN4CCC[C@@H]4C(=O)O)c(OC(F)F)cc3o2)c1C (stereo partly drawn) [Example 182, ((6-(difluoromethoxy)-2-(3′-((3-((3-hydroxypyrrolidin-1-yl)methyl)-1,7-naphthyridin-8-yl)amino)-2,2′-dimethyl-[1,1′-biphenyl]-3-yl)benzo[d]oxazol-5-yl)methyl)-D-proline]",0.1 to 5
10,"Cc1c(-c2nc3cc(CN4CC5CNCC5C4)c(OC(F)F)cc3o2)cccc1-c1cccc(-c2nc3cc(CN4CCC[C@H]4C(=O)O)c(OC(F)F)cc3o2)c1C (stereo partly drawn) [Example 50, ((6-(difluoromethoxy)-2-(3′-(6-(difluoromethoxy)-5-((hexahydropyrrolo [3,4-c]pyrrol-2(1H)-yl)methyl)benzo[d]oxazol-2-yl)-2,2′-dimethyl-[1,1′-biphenyl]-3-yl)benzo[d]oxazol-5-yl)methyl)-L-proline]",0.1 to 5
11,"Cc1c(-c2nc3cc(CN4CCC[C@H]4C(=O)O)c(OC(F)F)cc3o2)cccc1-c1cccc(-c2cnc(CN3CCCC3)c(F)c2)c1C(F)F [Example 268, ((6-(difluoromethoxy)-2-(2′-(difluoromethyl)-3′-(5-fluoro-6-(pyrrolidin-1-ylmethyl)pyridin-3-yl)-2-methyl-[1,1′-biphenyl]-3-yl)benzo[d]oxazol-5-yl)methyl)-L-proline]",0.1 to 5
12,"Cc1cc(-c2cccc(-c3cccc(-c4nc5cc(CN6CCC[C@H]6C(=O)O)c(OC(F)F)cc5o4)c3C)c2C)ccc1CN1CCCC1 [Example 218, ((6-(difluoromethoxy)-2-(2,2′,3″-trimethyl-4″- (pyrrolidin-1-ylmethyl)-[1,1′:3′,1″-terphenyl]-3-yl)benzo[d]oxazol-5-yl)methyl)proline]",0.1 to 5
13,"COc1nc(-c2cccc(-c3cccc(-c4nc5cc(CN6CCC[C@H]6C(=O)O)c(OC(F)F)cc5o4)c3C)c2Cl)cnc1CNCC1CCC(=O)N1 (stereo partly drawn) [Example 287, ((2-(2′-chloro-3′-(6-methoxy-5-((((5-oxopyrrolidin-2-yl)methyl)amino)methyl)pyrazin-2-yl)-2-methyl-[1,1′-biphenyl]-3-yl)-6-(difluoromethoxy)benzo[d]oxazol-5-yl)methyl)-L-proline]",0.1 to 5
14,"COc1nc(-c2cccc(-c3cccc(-c4nc5cc(CN6CCC[C@H]6C(=O)O)c(OC(F)F)cc5o4)c3C)c2C)ccc1CN1CCC[C@@H]1C [Example 277, ((6-(difluoromethoxy)-2-(3′-(6-methoxy-5-(((S)-2-methylpyrrolidin-1-yl)methyl)pyridin-2-yl)-2,2′-dimethyl-[1,1′-biphenyl]-3-yl)benzo[d]oxazol-5-yl)methyl)-L-proline]",0.1 to 5
15,"Cc1c(-c2nc3c(o2)CCN(CCCF)C3)cccc1-c1cccc(-c2nc3cc(CN4CCC[C@H]4C(=O)O)c(OC(F)F)cc3o2)c1C [Example 200, ((6-(difluoromethoxy)-2-(3′-(5-(3-fluoropropyl)-4,5,6,7-tetrahydrooxazolo[4,5-c]pyridin-2-yl)-2,2′-dimethyl-[1,1′-biphenyl]-3-yl)benzo[d]oxazol-5-yl)methyl)proline]",5 to 50
